Tests used:
GST-Bcl-2 = GST-Bcl-2 (Homo sapiens (Human), UniProt P10415); assay: Time Resolved-Fluorescence Resonance Energy Transfer (TR-FRET) Bcl-2 binding assay; conditions: GST-Bcl-2 1 nM, F-Bak peptide probe 100 nM, Tb-anti-GST 1 nM; 3 hours at room temperature; < means below limit of detection
Procedure: Determination of the utility of compounds having Formula (I) as binders to and inhibitors of anti-apoptotic Bcl-2 proteins was performed using the Time Resolved-Fluorescence Resonance Energy Transfer (TR-FRET) Assay.
Representative compounds were serially diluted in dimethyl sulfoxide (DMSO) starting at 50 μM (2× starting concentration; 10% DMSO) and 10 μL were transferred into a 384-well plate. The samples are then mixed on a shaker for 1 minute and incubated for an additional 3 hours at room temperature. For each assay, the probe/antibody and protein/probe/antibody were included on each assay plate as negative and positive controls, respectively.
The samples were then mixed on a shaker for 1 minute and incubated for an additional 3 hours at room temperature. For each assay, the probe/antibody and protein/probe/antibody were included on each assay plate as negative and positive controls, respectively.

RS4;11 cells [1] = assay: RS4;11 cell viability assay; type: cell-based; conditions: 10% human serum, 48 hours, CellTiter Glo
Procedure: Cell cytotoxicity EC50 values were assessed using CellTiter Glo (Promega) according to the manufacturer's recommendations. The EC50 values were determined as a percentage of viable cells following treatment compared to the untreated control cells.

RS4;11 cells [2] = conditions: Blood, 2008, Vol. 111, 2300-2309; cited from earlier work
[3] = stability of coupling product during workup and chromatography, monitored by HPLC/MS; type: physicochemical; conditions: peak disappeared during workup and chromatography
Procedure: Specifically, this was discovered by the inventors in the following compound preparation. The intermediate structure F, that directly precedes the final product of the unstable compound, was prepared according to the route below. All intermediates A-F were stable and isolable using techniques known to those skilled in the art.
Intermediate F, shown in the scheme above, was reacted with intermediate G using standard coupling conditions that are known to those skilled in the art. The reaction mixture was analyzed via HPLC/MS to monitor the formation of a peak corresponding to the compound H. While this peak formed within hours of initiating the reaction below, the peak progressively disappeared during workup and chromatography, until it no longer was present. The lack of stability of the putative compound originates from the position of the nitrogen within the fused ring-system described above. This position, which is adjacent to the oxygen-bearing carbon in the 5-substituted-1H-pyrrolo[2,3-c]pyridine ring system shown below and described above, makes the compound H unstable.

Chain of GST-Bcl-2 (P10415 whole entry): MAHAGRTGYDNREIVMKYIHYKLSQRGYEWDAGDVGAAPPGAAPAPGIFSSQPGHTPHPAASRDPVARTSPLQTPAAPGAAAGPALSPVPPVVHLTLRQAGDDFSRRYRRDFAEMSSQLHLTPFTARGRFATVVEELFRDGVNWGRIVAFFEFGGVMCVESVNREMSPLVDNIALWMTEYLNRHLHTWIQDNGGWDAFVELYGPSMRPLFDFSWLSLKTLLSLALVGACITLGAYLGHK

Question: For “4-(4-{[2-(4-chlorophenyl)-4,4-dimethylcyclohex-1-en-1-yl]methyl}piperazin-1-yl)-N-({3-(pentafluoro-lambda-6-sulfanyl)-4-[(tetrahydro-2H-pyran-4-ylmethyl)amino]phenyl}sulfonyl)-2-(1H-pyrrolo[2,3-b]pyridin-5-yloxy)benzamide [Example 233]”, which Ki (GST-Bcl-2) is on record?
Answer: The Ki was 1.65 nM.

Question: And the EC50 (RS4;11 cells [1])?
Answer: Its EC50 is greater than 1000 nM.

Question: For “4-(4-{[2-(4-chlorophenyl)-4,4-dimethylcyclohex-1-en-1-yl]methyl}piperazin-1-yl)-N-[(4-{[(3R)-1-(2-fluoroethyl)pyrrolidin-3-yl]amino}-3-nitrophenyl)sulfonyl]-2-(1H-pyrrolo[2,b]pyridin-5-yloxy)benzamide [Example 183]”, which Ki (GST-Bcl-2) is on record?
Answer: The Ki was less than 0.01 nM.

Question: What about the EC50 (RS4;11 cells [1]) of the same molecule?
Answer: The EC50 was 17.5 nM.

Question: For “4-(4-{[2-(4-chlorophenyl)-4,4-dimethylcyclohex-1-en-1-yl]methyl}piperazin-1-yl)-N-{[4-({[(E)-4-hydroxy-1-adamantyl]methyl}amino)-3-nitrophenyl]sulfonyl}-2-(1H-pyrrolo[2,3-b]pyridin-5-yloxy)benzamide [Example 199]”, which Ki (GST-Bcl-2) is on record?
Answer: The Ki was less than 0.01 nM.

Question: And the EC50 (RS4;11 cells [1])?
Answer: The EC50 was 5.06 nM.

Question: For “4-(4-{[2-(4-chlorophenyl)-4,4-dimethylcyclohex-1-en-1-yl]methyl}piperazin-1-yl)-N-{[4-({[(Z)-4-hydroxy-1-adamantyl]methyl}amino)-3-nitrophenyl]sulfonyl}-2-(1H-pyrrolo[2,3-b]pyridin-5-yloxy)benzamide [Example 200]”, which Ki (GST-Bcl-2) is on record?
Answer: The Ki was less than 0.01 nM.

Question: What about the EC50 (RS4;11 cells [1]) of the same molecule?
Answer: The EC50 was 11 nM.

Question: With “4-(4-{[2-(4-chlorophenyl)-4,4-dimethylcyclohex-1-en-1-yl]methyl}piperazin-1-yl)-N-{[4-({[cis-3-morpholin-4-ylcyclopentyl]methyl}amino)-3-nitrophenyl]sulfonyl}-2-(1H-pyrrolo[2,3-b]pyridin-5-yloxy)benzamide [Example 188]” as the molecule, how does the EC50 (RS4;11 cells [1]) read?
Answer: Its EC50 is 16.4 nM.

Question: With `CN(C)CC[C@H](CSc1ccccc1)Nc1ccc(S(=O)(=O)NC(=O)c2ccc(N3CCN(Cc4ccccc4-c4ccc(Cl)cc4)CC3)cc2)cc1[N+](=O)[O-]` [ABT-737, N-(4-(4-((4′-chloro(1,1′-biphenyl)-2-yl)methyl)piperazin-1-yl)benzoyl)-4-(((1R)-3-(dimethylamino)-1-((phenylsulfanyl)methyl)propyl)amino)-3-nitrobenzenesulfonamide] as the molecule, how does the “sensitivity of RS4; 11 cells to the inhibitor” value (RS4;11 cells [2]) read?
Answer: The value was “sensitive”.

Question: For `CC1(C)CCC(CN2CCN(c3ccc(C(=O)NS(=O)(=O)c4ccc(OCC5COCCN5C5CCOCC5)c([N+](=O)[O-])c4)c(Oc4cnc5[nH]ccc5c4)c3)CC2)=C(c2ccc(Cl)cc2)C1` (stereo not drawn) [Example 104, 4-(4-{[2-(4-chlorophenyl)-4,4-dimethylcyclohex-1-en-1-yl]methyl}piperazin-1-yl)-N({3-nitro-4-[(4-tetrahydro-2H-pyran-4-ylmorpholin-3-yl)methoxy]phenyl}sulfonyl)-2-(1H-pyrrolo[2,3-b]pyridin-5-yloxy)benzamide], which Ki (GST-Bcl-2) is on record?
Answer: The Ki was 0.016 nM.

Question: And the EC50 (RS4;11 cells [1])?
Answer: Its EC50 is 71.2 nM.

Question: With `CC1(C)CCC(CN2CCN(c3ccc(C(=O)NS(=O)(=O)c4ccc(NC[C@H]5CC[C@@](C)(O)CC5)c([N+](=O)[O-])c4)c(Oc4cnc5[nH]ccc5c4)c3)CC2)=C(c2ccc(Cl)cc2)C1` [Example 337, 4-(4-{[2-(4-chlorophenyl)-4,4-dimethylcyclohex-1-en-1-yl]methyl}piperazin-1-yl)-N-[(4-{[(trans-4-hydroxy-4-methylcyclohexyl)methyl]amino}-3-nitrophenyl)sulfonyl]-2-(1H-pyrrolo[2,3-b]pyridin-5-yloxy)benzamide] as the molecule, how does the EC50 (RS4;11 cells [1]) read?
Answer: Its EC50 is 1.76 nM.

Question: Which Ki (GST-Bcl-2) does the source give for `C[C@]1(O)CC[C@@H](COc2ncc(S(=O)(=O)NC(=O)c3ccc(N4CCN(CC5=C(c6ccc(Cl)cc6)CC6(CC5)CC6)CC4)cc3Oc3cnc4[nH]ccc4c3)cc2Cl)CC1` [Example 341, N-({5-chloro-6-[(trans-4-hydroxy-4-methylcyclohexyl)methoxy]pyridin-3-yl}sulfonyl)-4-(4-{[5-(4-chlorophenyl)spiro[2.5]oct-5-en-6-yl]methyl}piperazin-1-yl)-2-(1H-pyrrolo[2,3-b]pyridin-5-yloxy)benzamide] here?
Answer: The Ki was less than 0.01 nM.

Question: What about the EC50 (RS4;11 cells [1]) of the same molecule?
Answer: The EC50 was 31.7 nM.

Question: With `CC1(C)CCC(CN2CCN(c3ccc(C(=O)NS(=O)(=O)c4cnc(OC[C@]5(F)CC[C@@H](O)CC5)c(Cl)c4)c(Oc4cnc5[nH]ccc5c4)c3)CC2)=C(c2ccc(Cl)cc2)C1` [Example 350, N-({5-chloro-6-[(cis-1-fluoro-4-hydroxycyclohexyl)methoxy]pyridin-3-yl}sulfonyl)-4-(4-{[2-(4-chlorophenyl)-4,4-dimethylcyclohex-1-en-1-yl]methyl}piperazin-1-yl)-2-(1H-pyrrolo[2,3-b]pyridin-5-yloxy)benzamide] as the molecule, how does the Ki (GST-Bcl-2) read?
Answer: Its Ki is less than 0.01 nM.

Question: Which Ki (GST-Bcl-2) does the source give for `CCC1(O)CCC(CNc2ccc(S(=O)(=O)NC(=O)c3ccc(N4CCN(CC5=C(c6ccc(Cl)cc6)CC(C)(C)CC5)CC4)cc3Oc3cnc4[nH]ccc4c3)cc2[N+](=O)[O-])CC1` (stereo not drawn) [Example 358, 4-(4-{[2-(4-chlorophenyl)-4,4-dimethylcyclohex-1-en-1-yl]methyl}piperazin-1-yl)-N-[(4-{[(trans-4-ethyl-4-hydroxycyclohexyl)methyl]amino}-3-nitrophenyl)sulfonyl]-2-(1H-pyrrolo[2,3-b]pyridin-5-yloxy)benzamide] here?
Answer: The Ki was less than 0.01 nM.

Question: Which Ki (GST-Bcl-2) does the source give for `CC[C@]1(O)CC[C@H](CNc2ccc(S(=O)(=O)NC(=O)c3ccc(N4CCN(CC5=C(c6ccc(Cl)cc6)CC(C)(C)CC5)CC4)cc3Oc3cnc4[nH]ccc4c3)cc2[N+](=O)[O-])CC1` [Example 359, 4-(4-{[2-(4-chlorophenyl)-4,4-dimethylcyclohex-1-en-1-yl]methyl}piperazin-1-yl)-N-[(4-{[(cis-4-ethyl-4-hydroxycyclohexyl)methyl]amino}-3-nitrophenyl)sulfonyl]-2-(1H-pyrrolo[2,3-b]pyridin-5-yloxy)benzamide] here?
Answer: The Ki was less than 0.01 nM.

Question: Which Ki (GST-Bcl-2) does the source give for `CC1(C)CCC(CN2CCN(c3ccc(C(=O)NS(=O)(=O)c4ccc(OC[C@H]5CC[C@@](C)(O)CC5)c(Cl)c4)c(Oc4cnc5[nH]ccc5c4)c3)CC2)=C(c2ccc(Cl)cc2)C1` [Example 362, N-({3-chloro-4-[(trans-4-hydroxy-4-methylcyclohexyl)methoxy]phenyl}sulfonyl)-4-(4-{[2-(4-chlorophenyl)-4,4-dimethylcyclohex-1-en-1-yl]methyl}piperazin-1-yl)-2-(1H-pyrrolo[2,3-b]pyridin-5-yloxy)benzamide] here?
Answer: The Ki was 0.016 nM.

Question: What about the EC50 (RS4;11 cells [1]) of the same molecule?
Answer: Its EC50 is 31.7 nM.

Question: With `CC1(C)CCC(CN2CCN(c3ccc(C(=O)NS(=O)(=O)c4cnc(NC[C@H]5CC[C@@](C)(O)CC5)c([N+](=O)[O-])c4)c(Oc4cnc5[nH]ccc5c4)c3)CC2)=C(c2ccc(Cl)cc2)C1` [Example 371, 4-(4-{[2-(4-chlorophenyl)-4,4-dimethylcyclohex-1-en-1-yl]methyl}piperazin-1-yl)-N-[(6-{[(trans-4-hydroxy-4-methylcyclohexyl)methyl]amino}-5-nitropyridin-3-yl)sulfonyl]-2-(1H-pyrrolo[2,3-b]pyridin-5-yloxy)benzamide] as the molecule, how does the Ki (GST-Bcl-2) read?
Answer: Its Ki is less than 0.001 nM.

Question: Which Ki (GST-Bcl-2) does the source give for `CC1(C)CCC(CN2CCN(c3ccc(C(=O)NS(=O)(=O)c4cnc(NC[C@H]5CC[C@](C)(O)CC5)c([N+](=O)[O-])c4)c(Oc4cnc5[nH]ccc5c4)c3)CC2)=C(c2ccc(Cl)cc2)C1` [Example 376, 4-(4-{[2-(4-chlorophenyl)-4,4-dimethylcyclohex-1-en-1-yl]methyl}piperazin-1-yl)-N-[(6-{[(cis-4-hydroxy-4-methylcyclohexyl)methyl]amino}-5-nitropyridin-3-yl)sulfonyl]-2-(1H-pyrrolo[2,3-b]pyridin-5-yloxy)benzamide] here?
Answer: Its Ki is less than 0.001 nM.

Question: For `COC1(C)CCC(c2ccc(Cl)cc2)=C(CN2CCN(c3ccc(C(=O)NS(=O)(=O)c4ccc(NC[C@H]5CC[C@@](C)(O)CC5)c([N+](=O)[O-])c4)c(Oc4cnc5[nH]ccc5c4)c3)CC2)C1` (stereo partly drawn) [Example 377, 4-(4-{[2-(4-chlorophenyl)-5-methoxy-5-methylcyclohex-1-en-1-yl]methyl}piperazin-1-yl)-N-[(4-{[(trans-4-hydroxy-4-methylcyclohexyl)methyl]amino}-3-nitrophenyl)sulfonyl]-2-(1H-pyrrolo[2,3-b]pyridin-5-yloxy)benzamide], which Ki (GST-Bcl-2) is on record?
Answer: Its Ki is less than 0.001 nM.

Question: Which stability [3] does the source give for `CC1(C)CCC(CN2CCN(c3ccc(C(=O)NS(=O)(=O)c4ccc(NCC5CCOCC5)c([N+](=O)[O-])c4)c(Oc4cc5cc[nH]c5cn4)c3)CC2)=C(c2ccc(Cl)cc2)C1` [compound H] here?
Answer: The stability was “unstable”.
